Data set [1] in a line: Inhibition of cell adhesion of human KM12-HX cells to TNF-alpha stimulated HUVEC cells incubated for 30 mins with HUVEC cells followed by [3H]thymidine labeled KM12-HX cells addition measured after 30 mins by radioactivity assay. It counts as functional, cell-based.
Data set [2] in a line: Antimitotic activity against human U373 cells assessed as inhibition of cell proliferation by measuring inhibitory dose incubated for 48 hrs by [3H]-thymidine incorporation based liquid scintillation counting method. The following applies: U373 MG, read-out: ID50 (the source's name). In kind it is functional. Background: Incorporation of labelled thymidine or its analogues reports DNA synthesis.

The subject of a further data set is MCF-10A. Briefly: Cytotoxicity against human MCF-10A cells assessed as cell growth inhibition incubated for 3 days by MTT assay. The following applies: 72 h. In kind it is functional, cell-based. (Formazan colour is commonly taken as a measure of viable cells.)
Data set [3] in a line: Cytotoxicity against mouse NIH/3T3 cells assessed as cell growth inhibition incubated for 3 days by MTT assay. It counts as toxicity, cell-based, NIH3T3.
The nature of data set [4]: Antimitotic activity against rat Astrocyte cells assessed as inhibition of cell proliferation by measuring inhibitory dose by [3H]-thymidine incorporation based […]. It counts as functional. The following applies: read-out: ID50 (the source's name).
A short description of data set [5]: Antimitotic activity against rat Astrocytoma cell assessed as inhibition of cell proliferation by measuring inhibitory dose by [3H]-thymidine incorporation based […]. In kind it is functional. The following applies: read-out: ID50 (the source's name).
For another data set, the system named is N2a. Nature of the data set: Antimitotic activity against mouse Neuro2a cells assessed as inhibition of cell proliferation by measuring inhibitory dose by [3H]-thymidine incorporation based […]. The following applies: read-out: ID50 (the source's name). It counts as functional.
Data set [6] can be described thus: Antimitotic activity against rat RN 22 cells assessed as inhibition of cell proliferation by measuring inhibitory dose by [3H]-thymidine incorporation based […]. It counts as functional. The following applies: read-out: ID50 (the source's name).
Data set [7] is described as follows: Cytotoxicity against human HEK293F cells. It counts as toxicity, cell-based.
In another data set the test system is MKN-45. Briefly: Cytotoxicity against human MKN-45 cells. It counts as functional, cell-based.
Another data set relates to MOLT-4. Briefly: Cytotoxicity against human MOLT-4 cells. In kind it is functional, cell-based.
The subject of data set [8] is T-24. Briefly: Cytotoxicity against human T24 cells assessed as cell viability. In kind it is functional.
Data set [9] deals with T-24. Nature of the data set: Cytotoxicity against human T24 cells assessed as cell viability at 12.5 uM in presence of doxorubicin. In kind it is functional. The following applies: read-out: Activity.
Data set [10] concerns MCF7. Briefly: Cytotoxicity against human MCF7 cells assessed as inhibition of cell growth incubated for 30 mins by MTT colorimetric assay. It counts as functional, cell-based. The following applies: MCF7, 0.5 h.
A further data set relates to SMMC-7721. Briefly: Cytotoxicity against human SMMC-7721 cells assessed as inhibition of cell growth incubated for 30 mins by MTT colorimetric assay. In kind it is functional, cell-based. The following applies: SMMC-7721, 0.5 h.
The subject of a further data set is MG-63. Nature of the data set: Cytotoxicity against human MG-63 cells assessed as inhibition of cell growth incubated for 30 mins by MTT colorimetric assay. In kind it is functional, cell-based. The following applies: MG-63, 0.5 h.
The subject of data set [11] is MCF7. Briefly: Antiproliferative activity against human MCF7 cells assessed as cell growth inhibition by measuring minimum inhibitory concentration incubated for 48 hrs by MTT assay. In kind it is functional.
In another data set the test system is BV-173. Briefly: Cytotoxicity against human BV-173 cells assessed as inhibition of cell growth incubated for 72 hrs by MTT assay. In kind it is functional, cell-based. The following applies: BV-173, 72 h.
Data set [12] in a line: Cytotoxicity against human SKW-3 cells assessed as inhibition of cell growth incubated for 72 hrs by MTT assay. The following applies: SKW3, 72 h. It counts as functional, cell-based.
The next data set concerns HL-60. Briefly: Cytotoxicity against human HL-60 cells assessed as inhibition of cell growth incubated for 72 hrs by MTT assay. The following applies: HL-60, 72 h. In kind it is functional, cell-based.
Data set [13] is described as follows: Cytotoxicity against human JMSU-1 cells assessed as inhibition of cell growth incubated for 72 hrs by MTT assay. In kind it is functional, cell-based. The following applies: JMSU-1, 72 h.
The test system of data set [14] is MDA-MB-231. Nature of the data set: Cytotoxicity against human MDA-MB-231 cells assessed as cell growth inhibition incubated for 48 hrs by crystal violet staining based spectrofluorimeter assay. The following applies: MDA-MB-231, 48 h. In kind it is functional.
Data set [15] relates to MDA-MB-231. Nature of the data set: Inhibition of cell migration in human MDA-MB-231 cells incubated upto 48 hrs by inverted microscopic analysis. In kind it is functional.
The test system of another data set is HeLa. Briefly: Cytotoxicity against human HeLa cells assessed as inhibition of cell growth incubated for 24 hrs by MTT assay. In kind it is functional, cell-based.
The next data set deals with Ca-Ski. Briefly: Cytotoxicity against human Ca-Ski cells assessed as inhibition of cell growth incubated for 24 hrs by MTT assay. It counts as functional, cell-based.

In brackets after ≈: the same amount, converted by molar mass.

As to `CCCCCCCCCCCCCCC(CCCCCCCCCCCCCC)CO[C@@H]1O[C@H](CO)[C@@H](O[C@@H]2O[C@H](CO)[C@H](O)[C@H](OS(=O)(=O)O)[C@H]2O)[C@H](O[C@@H]2O[C@@H](C)[C@@H](O)[C@@H](O)[C@@H]2O)[C@H]1O`, the IC50 in data set [1] was 300 µM.

On to `CCCCCCCCO[C@H]1O[C@H](COCC(CO)(CO)CO)[C@@H](O)[C@H](O)[C@H]1NC(C)=O`, for which the IC50 in [2] came out at 43 µM.

On to `C/C=C(\C)C(=O)O[C@@H]1[C@@H](O)[C@@H]2O[C@H]3[C@H](O[C@@H](CCCCC)CCCCCCC(=O)CCC(=O)OC[C@@H](O2)[C@H]1OC(=O)/C=C/c1ccccc1)O[C@H](C)[C@H](OC(C)=O)[C@@H]3O`, for which, in the data set with MCF-10A, the IC50 was found to be 0.0054 µM. Besides, the IC50 at 3 days in [3] amounted to 0.0168 µM.

As for `CO[C@@H]1O[C@H](CO)[C@@H](O[C@@H]2O[C@H](CO)[C@H](O)[C@H](O[C@H]3O[C@H](CO)[C@H](O)[C@H](O)[C@H]3NC(C)=O)[C@H]2O)[C@H](O[C@@H]2O[C@@H](C)[C@@H](O)[C@@H](O)[C@@H]2O)[C@H]1O`, the IC50 (in [4]; in data set [5]; in the data set on N2a; in [6]) was 24 µM throughout.

`CCCCCCCC(=O)O[C@H]1[C@H](OC[C@H](O)[C@@H](O)[C@@H](O)[C@H](O)[C@H](O)CO)O[C@H](COC(=O)CCCCC)[C@@H](OC(=O)CCCCC)[C@@H]1OC(=O)CCCCC`: the IC50 came out at 21.8 µM in data set [7], 16 µM with MKN-45 and 8.1 µM with MOLT-4. For the same compound, the Activity in the data set on T-24 [8] amounted to 57.3%. The viability at 12.5 µM in the data set on T-24 [9] was 36.9%.

Regarding `CCCCC[C@@H](CCCCCCCCCC(=O)O[C@H]1[C@H](O[C@@H](CNc2ccc(OC)cc2)[C@@H](O)[C@H](O)[C@H](O)CO)O[C@@H](C)[C@H](OC(=O)[C@@H](C)[C@@H](C)O)[C@H]1O[C@@H]1O[C@@H](C)[C@H](O)[C@@H](O)[C@H]1O)O[C@@H]1OC[C@@H](O)[C@H](O)[C@H]1O[C@@H]1O[C@H](CO)[C@@H](O)[C@H](O)[C@H]1O[C@@H]1O[C@@H](C)[C@H](OC(=O)[C@H](C)[C@@H](C)O)[C@@H](O[C@@H]2O[C@@H](C)[C@H](O)[C@@H](O)[C@H]2O)[C@H]1OC(=O)CCCCCCCCC[C@@H](O)CCC`, the values for the IC50 in the data set with MCF7 [10], with SMMC-7721 and in the data set with MG-63 were 8.72 µg/mL (≈ 4.72 µM), 9.78 µg/mL (≈ 5.29 µM) and 10.9 µg/mL (≈ 5.9 µM), respectively.

One may read the MIC as the lowest concentration found to suppress growth. For the compound `CCCCCCCCCC[C@@H](CC(=O)O)OC(=O)C[C@H](CCCCCCCCCC)O[C@@H]1O[C@@H](C)[C@H](O)[C@@H](O)[C@H]1O`, the minimal inhibitory concentration (MIC) in the data set on MCF7 [11] is 6.25 µg/mL (≈ 10.6 µM). Besides, the IC50 is 50 µM with BV-173, 54 µM in data set [12], 67 µM in the data set with HL-60 and 60 µM in [13].

Take `CC(=O)OC[C@H]1O[C@H]2O[C@@H](C)CCCCCC/C=C\CCCCCCCC(=O)O[C@@H]3[C@@H](O)[C@H](O[C@@H]2[C@@H](O)[C@@H]1O)O[C@H](COC(C)=O)[C@H]3O`: the IC50 in the data set with MDA-MB-231 [14] came to 21.7 µM; with HeLa, 12.2 µg/mL (≈ 17.8 µM); in the data set with Ca-Ski, 25.3 µg/mL (≈ 36.8 µM). Further, the “inhibition (INH)” value with MDA-MB-231 [15] came out at 41.5%.
